Laboratory results reported in ChEMBL document CHEMBL1147199, “Exploration of the correlation between the structure, hemolytic activity, and cytotoxicity of steroid saponins” (Bioorg Med Chem, 2007).

Experiment: Cytotoxicity against human erythrocytes assessed as hemolytic activity after 60 mins
Type: cell-based, Erythrocyte
Settings: read-out: HD50

**Q.** For `C[C@@H]1CC[C@@]2(OC1)O[C@H]1C[C@H]3[C@@H]4CC=C5C[C@@H](O[C@@H]6O[C@H](CO)[C@@H](O[C@H]7O[C@H](C)[C@@H](OCCNC(=O)COc8ccccc8)[C@H](O)[C@@H]7O)[C@H](O)[C@H]6O[C@H]6O[C@H](C)[C@@H](O)[C@H](O)[C@@H]6O)CC[C@]5(C)[C@H]4CC[C@]3(C)[C@H]1[C@@H]2C`, which HC50 at 1 h is on record?
**A.** The HC50 at 1 h was 7.6 µM.

**Q.** For `C[C@@H]1CC[C@@]2(OC1)O[C@H]1C[C@H]3[C@@H]4CC=C5C[C@@H](O[C@@H]6O[C@H](CO)[C@@H](O[C@H]7O[C@H](C)[C@@H](OCCNC(=O)COc8ccc(Cl)cc8)[C@H](O)[C@@H]7O)[C@H](O)[C@H]6O[C@H]6O[C@H](C)[C@@H](O)[C@H](O)[C@@H]6O)CC[C@]5(C)[C@H]4CC[C@]3(C)[C@H]1[C@@H]2C`, which HC50 at 1 h is on record?
**A.** Its HC50 at 1 h is 2.9 µM.

**Q.** For `C[C@@H]1CC[C@@]2(OC1)O[C@H]1C[C@H]3[C@@H]4CC=C5C[C@@H](O[C@@H]6O[C@H](CNC(=O)/C=C/c7ccccc7)[C@@H](O[C@H]7O[C@H](C)[C@@H](O)[C@H](O)[C@@H]7O)[C@H](O)[C@H]6O[C@H]6O[C@H](C)[C@@H](O)[C@H](O)[C@@H]6O)CC[C@]5(C)[C@H]4CC[C@]3(C)[C@H]1[C@@H]2C`, which HC50 at 1 h is on record?
**A.** The HC50 at 1 h was 11.8 µM.

**Q.** For `C[C@@H]1CC[C@@]2(OC1)O[C@H]1C[C@H]3[C@@H]4CC=C5C[C@@H](O[C@@H]6O[C@H](CNC(=O)COc7ccccc7)[C@@H](O[C@H]7O[C@H](C)[C@@H](O)[C@H](O)[C@@H]7O)[C@H](O)[C@H]6O[C@H]6O[C@H](C)[C@@H](O)[C@H](O)[C@@H]6O)CC[C@]5(C)[C@H]4CC[C@]3(C)[C@H]1[C@@H]2C`, which HC50 at 1 h is on record?
**A.** The HC50 at 1 h was 9.4 µM.

**Q.** For `C=CCCCCCCCCC(=O)NCCO[C@H]1[C@H](O)[C@H](O)[C@@H](O[C@H]2[C@H](O)[C@@H](O[C@H]3O[C@H](C)[C@@H](O)[C@H](O)[C@@H]3O)[C@H](O[C@H]3CC[C@@]4(C)C(=CC[C@H]5[C@@H]6C[C@@H]7O[C@]8(CC[C@@H](C)CO8)[C@@H](C)[C@@H]7[C@@]6(C)CC[C@@H]54)C3)O[C@@H]2CO)O[C@@H]1C`, which HC50 at 1 h is on record?
**A.** Its HC50 at 1 h is 3.8 µM.

**Q.** With `CC(=O)NCCO[C@H]1[C@H](O)[C@H](O)[C@@H](O[C@H]2[C@H](O)[C@@H](O[C@H]3O[C@H](C)[C@@H](O)[C@H](O)[C@@H]3O)[C@H](O[C@H]3CC[C@@]4(C)C(=CC[C@H]5[C@@H]6C[C@@H]7O[C@]8(CC[C@@H](C)CO8)[C@@H](C)[C@@H]7[C@@]6(C)CC[C@@H]54)C3)O[C@@H]2CO)O[C@@H]1C` as the compound, how does the HC50 at 1 h read?
**A.** The HC50 at 1 h was 9.2 µM.

**Q.** With `COc1ccc(C(=O)NCCO[C@H]2[C@H](O)[C@H](O)[C@@H](O[C@H]3[C@H](O)[C@@H](O[C@H]4O[C@H](C)[C@@H](O)[C@H](O)[C@@H]4O)[C@H](O[C@H]4CC[C@@]5(C)C(=CC[C@H]6[C@@H]7C[C@@H]8O[C@]9(CC[C@@H](C)CO9)[C@@H](C)[C@@H]8[C@@]7(C)CC[C@@H]65)C4)O[C@@H]3CO)O[C@@H]2C)cc1` as the compound, how does the HC50 at 1 h read?
**A.** Its HC50 at 1 h is 4.5 µM.

**Q.** With `C[C@@H]1CC[C@@]2(OC1)O[C@H]1C[C@H]3[C@@H]4CC=C5C[C@@H](O[C@@H]6O[C@H](CO)[C@@H](O[C@H]7O[C@H](C)[C@@H](OCCNC(=O)OCC8c9ccccc9-c9ccccc98)[C@H](O)[C@@H]7O)[C@H](O)[C@H]6O[C@H]6O[C@H](C)[C@@H](O)[C@H](O)[C@@H]6O)CC[C@]5(C)[C@H]4CC[C@]3(C)[C@H]1[C@@H]2C` as the compound, how does the HC50 at 1 h read?
**A.** Its HC50 at 1 h is 3 µM.

**Q.** For `C[C@@H]1CC[C@@]2(OC1)O[C@H]1C[C@H]3[C@@H]4CC=C5C[C@@H](O[C@@H]6O[C@H](CNC(=O)COc7ccc(Cl)cc7)[C@@H](O[C@H]7O[C@H](C)[C@@H](O)[C@H](O)[C@@H]7O)[C@H](O)[C@H]6O[C@H]6O[C@H](C)[C@@H](O)[C@H](O)[C@@H]6O)CC[C@]5(C)[C@H]4CC[C@]3(C)[C@H]1[C@@H]2C`, which HC50 at 1 h is on record?
**A.** The HC50 at 1 h was 9.4 µM.

**Q.** With `C[C@@H]1CC[C@@]2(OC1)O[C@H]1C[C@H]3[C@@H]4CC=C5C[C@@H](O[C@@H]6O[C@H](CO)[C@@H](O[C@H]7O[C@H](C)[C@@H](OCCNC(=O)/C=C/c8ccccc8)[C@H](O)[C@@H]7O)[C@H](O)[C@H]6O[C@H]6O[C@H](C)[C@@H](O)[C@H](O)[C@@H]6O)CC[C@]5(C)[C@H]4CC[C@]3(C)[C@H]1[C@@H]2C` as the compound, how does the HC50 at 1 h read?
**A.** The HC50 at 1 h was 1.5 µM.

**Q.** Which HC50 at 1 h does the source give for `C[C@@H]1CC[C@@]2(OC1)O[C@H]1C[C@H]3[C@@H]4CC=C5C[C@@H](O[C@@H]6O[C@H](CNS(=O)(=O)c7cccc8c(N(C)C)cccc78)[C@@H](O[C@H]7O[C@H](C)[C@@H](O)[C@H](O)[C@@H]7O)[C@H](O)[C@H]6O[C@H]6O[C@H](C)[C@@H](O)[C@H](O)[C@@H]6O)CC[C@]5(C)[C@H]4CC[C@]3(C)[C@H]1[C@@H]2C` here?
**A.** Its HC50 at 1 h is 6.9 µM.

**Q.** For `C/C=C/C=C/C(=O)NCCO[C@H]1[C@H](O)[C@H](O)[C@@H](O[C@H]2[C@H](O)[C@@H](O[C@H]3O[C@H](C)[C@@H](O)[C@H](O)[C@@H]3O)[C@H](O[C@H]3CC[C@@]4(C)C(=CC[C@H]5[C@@H]6C[C@@H]7O[C@]8(CC[C@@H](C)CO8)[C@@H](C)[C@@H]7[C@@]6(C)CC[C@@H]54)C3)O[C@@H]2CO)O[C@@H]1C`, which HC50 at 1 h is on record?
**A.** The HC50 at 1 h was 1.6 µM.

**Q.** For `C[C@@H]1CC[C@@]2(OC1)O[C@H]1C[C@H]3[C@@H]4CC=C5C[C@@H](O[C@@H]6O[C@H](CO)[C@@H](O[C@H]7O[C@H](C)[C@@H](OCCNS(=O)(=O)c8cccc9c(N(C)C)cccc89)[C@H](O)[C@@H]7O)[C@H](O)[C@H]6O[C@H]6O[C@H](C)[C@@H](O)[C@H](O)[C@@H]6O)CC[C@]5(C)[C@H]4CC[C@]3(C)[C@H]1[C@@H]2C`, which HC50 at 1 h is on record?
**A.** Its HC50 at 1 h is 1.3 µM.

**Q.** Which HC50 at 1 h does the source give for `C[C@@H]1CC[C@@]2(OC1)O[C@H]1C[C@H]3[C@@H]4CC=C5C[C@@H](O[C@@H]6O[C@H](CO)[C@@H](O[C@H]7O[C@H](C)[C@@H](OCCNC(=O)C(F)(F)F)[C@H](O)[C@@H]7O)[C@H](O)[C@H]6O[C@H]6O[C@H](C)[C@@H](O)[C@H](O)[C@@H]6O)CC[C@]5(C)[C@H]4CC[C@]3(C)[C@H]1[C@@H]2C` here?
**A.** Its HC50 at 1 h is 5.7 µM.

**Q.** With `C[C@@H]1CC[C@@]2(OC1)O[C@H]1C[C@H]3[C@@H]4CC=C5C[C@@H](O[C@@H]6O[C@H](CO)[C@@H](O[C@H]7O[C@H](C)[C@@H](OCCNC(=O)CCCCl)[C@H](O)[C@@H]7O)[C@H](O)[C@H]6O[C@H]6O[C@H](C)[C@@H](O)[C@H](O)[C@@H]6O)CC[C@]5(C)[C@H]4CC[C@]3(C)[C@H]1[C@@H]2C` as the compound, how does the HC50 at 1 h read?
**A.** The HC50 at 1 h was 3.8 µM.

**Q.** With `CCCCCCCCCCCCCCCCCC(=O)NCCO[C@H]1[C@H](O)[C@H](O)[C@@H](O[C@H]2[C@H](O)[C@@H](O[C@H]3O[C@H](C)[C@@H](O)[C@H](O)[C@@H]3O)[C@H](O[C@H]3CC[C@@]4(C)C(=CC[C@H]5[C@@H]6C[C@@H]7O[C@]8(CC[C@@H](C)CO8)[C@@H](C)[C@@H]7[C@@]6(C)CC[C@@H]54)C3)O[C@@H]2CO)O[C@@H]1C` as the compound, how does the HC50 at 1 h read?
**A.** The HC50 at 1 h was over 50 µg/mL.

**Q.** Which HC50 at 1 h does the source give for `C[C@@H]1CC[C@@]2(OC1)O[C@H]1C[C@H]3[C@@H]4CC=C5C[C@@H](O[C@@H]6O[C@H](CNC(=O)OCC7c8ccccc8-c8ccccc87)[C@@H](O[C@H]7O[C@H](C)[C@@H](O)[C@H](O)[C@@H]7O)[C@H](O)[C@H]6O[C@H]6O[C@H](C)[C@@H](O)[C@H](O)[C@@H]6O)CC[C@]5(C)[C@H]4CC[C@]3(C)[C@H]1[C@@H]2C` here?
**A.** The HC50 at 1 h was 9 µM.

**Q.** For `CCCCCCCCCCCCCC(=O)NCCO[C@H]1[C@H](O)[C@H](O)[C@@H](O[C@H]2[C@H](O)[C@@H](O[C@H]3O[C@H](C)[C@@H](O)[C@H](O)[C@@H]3O)[C@H](O[C@H]3CC[C@@]4(C)C(=CC[C@H]5[C@@H]6C[C@@H]7O[C@]8(CC[C@@H](C)CO8)[C@@H](C)[C@@H]7[C@@]6(C)CC[C@@H]54)C3)O[C@@H]2CO)O[C@@H]1C`, which HC50 at 1 h is on record?
**A.** The HC50 at 1 h was over 50 µg/mL.

**Q.** With `C[C@@H]1CC[C@@]2(OC1)O[C@H]1C[C@H]3[C@@H]4CC=C5C[C@@H](O[C@@H]6O[C@H](CO)[C@@H](O[C@H]7O[C@H](C)[C@@H](OCCNC(=O)c8ccccc8)[C@H](O)[C@@H]7O)[C@H](O)[C@H]6O[C@H]6O[C@H](C)[C@@H](O)[C@H](O)[C@@H]6O)CC[C@]5(C)[C@H]4CC[C@]3(C)[C@H]1[C@@H]2C` as the compound, how does the HC50 at 1 h read?
**A.** The HC50 at 1 h was 49.3 µM.

**Q.** For `C[C@@H]1CC[C@@]2(OC1)O[C@H]1C[C@H]3[C@@H]4CC=C5C[C@@H](O[C@@H]6O[C@H](CO)[C@@H](O[C@H]7O[C@H](C)[C@@H](OCCNC(=O)c8ccccc8I)[C@H](O)[C@@H]7O)[C@H](O)[C@H]6O[C@H]6O[C@H](C)[C@@H](O)[C@H](O)[C@@H]6O)CC[C@]5(C)[C@H]4CC[C@]3(C)[C@H]1[C@@H]2C`, which HC50 at 1 h is on record?
**A.** Its HC50 at 1 h is 1.7 µM.

**Q.** With `C[C@@H]1CC[C@@]2(OC1)O[C@H]1C[C@H]3[C@@H]4CC=C5C[C@@H](O[C@@H]6O[C@H](CO)[C@@H](O[C@H]7O[C@H](C)[C@@H](OCCNC(=O)c8ccc([N+](=O)[O-])cc8)[C@H](O)[C@@H]7O)[C@H](O)[C@H]6O[C@H]6O[C@H](C)[C@@H](O)[C@H](O)[C@@H]6O)CC[C@]5(C)[C@H]4CC[C@]3(C)[C@H]1[C@@H]2C` as the compound, how does the HC50 at 1 h read?
**A.** Its HC50 at 1 h is 4.9 µM.

**Q.** Which HC50 at 1 h does the source give for `C[C@@H]1CC[C@@]2(OC1)O[C@H]1C[C@H]3[C@@H]4CC=C5C[C@@H](O[C@@H]6O[C@H](CO)[C@@H](O[C@H]7O[C@H](C)[C@@H](OCCN)[C@H](O)[C@@H]7O)[C@H](O)[C@H]6O[C@H]6O[C@H](C)[C@@H](O)[C@H](O)[C@@H]6O)CC[C@]5(C)[C@H]4CC[C@]3(C)[C@H]1[C@@H]2C` here?
**A.** The HC50 at 1 h was 2.6 µM.

**Q.** Which HC50 at 1 h does the source give for `C[C@@H]1CC[C@@]2(OC1)O[C@H]1C[C@H]3[C@@H]4CC=C5C[C@@H](O[C@@H]6O[C@H](CO)[C@@H](O[C@H]7O[C@H](C)[C@@H](OCCN=[N+]=[N-])[C@H](O)[C@@H]7O)[C@H](O)[C@H]6O[C@H]6O[C@H](C)[C@@H](O)[C@H](O)[C@@H]6O)CC[C@]5(C)[C@H]4CC[C@]3(C)[C@H]1[C@@H]2C` here?
**A.** The HC50 at 1 h was 9.7 µM.
